Results reported in ChEMBL document CHEMBL1201862, “PubChem BioAssay data set” (2004).
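Five compound concentrations were applied to cells in 96-well plates for 48 hours; endpoints were derived by simple linear interpolation of the resulting dose-response curve. GI50 = concentration required for 50% inhibition of growth.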 Active and inactive are the calls of the source. Rule as the data show it: active = GI50 up to about 1.1 µM and inactive = higher.

Key:
Assay in all cases: DTP human tumour cell line panel, 48 h
NCI-H522 = system: NCI-H522
DLD-1 = system: DLD-1
SNB-75 = system: SNB-75
UO-31 = system: UO-31
UACC-62 = system: UACC-62
NCI-H226 = system: NCI-H226
SK-MEL-2 = system: SK-MEL-2
HL-60 = system: HL-60
OVCAR-5 = system: OVCAR-5
OVCAR-8 = system: OVCAR-8
KM12 = system: KM12
HOP-92 = system: HOP-92
TK-10 = system: TK-10
NCI-H460 = system: NCI-H460
RPMI-8226 = system: RPMI-8226
786-0 = system: 786-0
IGROV-1 = system: IGROV-1
SR = system: SR
ACHN = system: ACHN
MOLT-4 = system: MOLT-4
OVCAR-4 = system: OVCAR-4
UACC-257 = system: UACC-257
M14 = system: M14
SK-OV-3 = system: SK-OV-3
A498 = system: A498
A549 = system: A549
RXF 393 = system: RXF 393
SF-539 = system: SF-539
HT-29 = system: HT-29
HOP-62 = system: HOP-62
SK-MEL-5 = system: SK-MEL-5
CAKI-1 = system: CAKI-1
SF-268 = system: SF-268
COLO 205 = system: COLO 205
HOP-18 = system: HOP-18
CCRF-CEM = system: CCRF-CEM
LOX IMVI = system: LOX IMVI
U-251 = system: U-251
HCT-15 = system: HCT-15
SK-MEL-28 = system: SK-MEL-28
Malme-3M = system: Malme-3M
SN12C = system: SN12C
SF-295 = system: SF-295
DMS-273 = system: DMS-273
SW-620 = system: SW-620
HCT-116 = system: HCT-116
M19-MEL = system: M19-MEL
NCI-H23 = system: NCI-H23
LXFL 529 = system: LXFL 529
K562 = system: K562
OVCAR-3 = system: OVCAR-3
DMS-114 = system: DMS-114
SNB-19 = system: SNB-19
HCC 2998 = system: HCC 2998
EKVX = system: EKVX
SNB-78 = system: SNB-78
KM-20L2 = system: KM-20L2

In the case of `Cc1nc2ccccc2c(=O)n1NC(=S)Nc1cccc(Cl)c1`, the GI50 (NCI-H522) is reported as 33.7 µM (inactive), the GI50 (DLD-1) is reported as > 100 µM (inactive) and the GI50 (SNB-75) is reported as 72.9 µM (inactive). For the same compound, the GI50 (UO-31) was > 100 µM (inactive), the GI50 (UACC-62) was > 100 µM (inactive) and the GI50 (NCI-H226) was > 100 µM (inactive). The GI50 (SK-MEL-2) was > 100 µM (inactive), the GI50 (HL-60) was > 100 µM (inactive) and the GI50 (OVCAR-5) was > 100 µM (inactive). The GI50 (OVCAR-8) was > 100 µM (inactive), the GI50 (KM12) was > 100 µM (inactive) and the GI50 (HOP-92) was > 100 µM (inactive). The GI50 (TK-10) was > 100 µM (inactive), the GI50 (NCI-H460) was > 100 µM (inactive) and the GI50 (RPMI-8226) was > 100 µM (inactive). The GI50 (786-0) was > 100 µM (inactive), the GI50 (IGROV-1) was > 100 µM (inactive) and the GI50 (SR) was 31.8 µM (inactive). The GI50 (ACHN) was > 100 µM (inactive), the GI50 (MOLT-4) was > 100 µM (inactive) and the GI50 (OVCAR-4) was > 100 µM (inactive). For the same compound, the GI50 (UACC-257) was > 100 µM (inactive), the GI50 (M14) was > 100 µM (inactive) and the GI50 (SK-OV-3) was > 100 µM (inactive). The GI50 (A498) was > 100 µM (inactive), the GI50 (A549) was > 100 µM (inactive) and the GI50 (RXF 393) was > 100 µM (inactive). For the same compound, the GI50 (SF-539) was > 100 µM (inactive), the GI50 (HT-29) was > 100 µM (inactive) and the GI50 (HOP-62) was > 100 µM (inactive). The GI50 (SK-MEL-5) was > 100 µM (inactive), the GI50 (CAKI-1) was > 100 µM (inactive) and the GI50 (SF-268) was > 100 µM (inactive). For the same compound, the GI50 (COLO 205) was > 100 µM (inactive), the GI50 (HOP-18) was > 100 µM (inactive) and the GI50 (CCRF-CEM) was > 100 µM (inactive). The GI50 (LOX IMVI) was 65.5 µM (inactive), the GI50 (U-251) was > 100 µM (inactive) and the GI50 (HCT-15) was > 100 µM. For the same compound, the GI50 (SK-MEL-28) was > 100 µM (inactive), the GI50 (Malme-3M) was > 100 µM (inactive) and the GI50 (SN12C) was > 100 µM (inactive). The GI50 (SF-295) was > 100 µM (inactive), the GI50 (DMS-273) was > 100 µM (inactive) and the GI50 (SW-620) was > 100 µM (inactive). The GI50 (HCT-116) was > 100 µM (inactive), the GI50 (M19-MEL) was > 100 µM (inactive) and the GI50 (NCI-H23) was > 100 µM (inactive). The GI50 (LXFL 529) was > 100 µM (inactive) and the GI50 (K562) was > 100 µM (inactive).

For `[N-]=[N+]=NC(c1cn(C2CC(O)C(CO)O2)c(=O)[nH]c1=O)C(I)I` (stereo unspecified), the GI50 (DLD-1) was > 100 µM (inactive), the GI50 (UO-31) was > 100 µM (inactive) and the GI50 (UACC-62) was > 100 µM (inactive). The GI50 (NCI-H226) was 9.55 µM (inactive), the GI50 (SK-MEL-2) was > 100 µM (inactive) and the GI50 (HL-60) was > 100 µM (inactive). The GI50 (OVCAR-5) was > 100 µM (inactive), the GI50 (OVCAR-8) was > 100 µM (inactive) and the GI50 (OVCAR-3) was > 100 µM (inactive). For the same compound, the GI50 (KM12) was > 100 µM (inactive), the GI50 (HOP-92) was > 100 µM (inactive) and the GI50 (TK-10) was > 100 µM (inactive). For the same compound, the GI50 (NCI-H460) was > 100 µM (inactive), the GI50 (RPMI-8226) was > 100 µM (inactive) and the GI50 (786-0) was > 100 µM (inactive). For the same compound, the GI50 (IGROV-1) was 87.7 µM (inactive), the GI50 (SR) was > 100 µM (inactive) and the GI50 (ACHN) was > 100 µM (inactive). For the same compound, the GI50 (MOLT-4) was > 100 µM (inactive), the GI50 (OVCAR-4) was 75.7 µM (inactive) and the GI50 (UACC-257) was > 100 µM (inactive). For the same compound, the GI50 (M14) was > 100 µM (inactive), the GI50 (SK-OV-3) was > 100 µM (inactive) and the GI50 (A498) was > 100 µM (inactive). For the same compound, the GI50 (DMS-114) was > 100 µM (inactive), the GI50 (A549) was > 100 µM (inactive) and the GI50 (RXF 393) was > 100 µM (inactive). The GI50 (SF-539) was > 100 µM (inactive), the GI50 (HT-29) was > 100 µM (inactive) and the GI50 (HOP-62) was > 100 µM (inactive). The GI50 (SNB-19) was > 100 µM (inactive), the GI50 (SK-MEL-5) was > 100 µM (inactive) and the GI50 (HCC 2998) was > 100 µM (inactive). For the same compound, the GI50 (CAKI-1) was > 100 µM (inactive), the GI50 (SF-268) was 56.1 µM (inactive) and the GI50 (COLO 205) was > 100 µM (inactive). The GI50 (HOP-18) was 2.23 µM (inactive), the GI50 (CCRF-CEM) was > 100 µM (inactive) and the GI50 (LOX IMVI) was > 100 µM (inactive). For the same compound, the GI50 (U-251) was > 100 µM (inactive), the GI50 (EKVX) was > 100 µM (inactive) and the GI50 (SK-MEL-28) was > 100 µM (inactive). The GI50 (SNB-78) was > 100 µM (inactive), the GI50 (Malme-3M) was > 100 µM (inactive) and the GI50 (KM-20L2) was > 100 µM (inactive). The GI50 (SN12C) was > 100 µM (inactive), the GI50 (SF-295) was > 100 µM (inactive) and the GI50 (DMS-273) was > 100 µM (inactive). The GI50 (SW-620) was > 100 µM (inactive), the GI50 (HCT-116) was > 100 µM (inactive) and the GI50 (M19-MEL) was > 100 µM (inactive). The GI50 (NCI-H23) was 71 µM (inactive), the GI50 (LXFL 529) was > 100 µM (inactive) and the GI50 (K562) was > 100 µM (inactive).

For `Cc1noc(C)c1C1=CCCCc2ccccc21`, the GI50 (NCI-H522) was 36.3 µM (inactive), the GI50 (DLD-1) was > 100 µM (inactive) and the GI50 (SNB-75) was 23.4 µM (inactive). For the same compound, the GI50 (UO-31) was > 100 µM (inactive), the GI50 (UACC-62) was 64.3 µM (inactive) and the GI50 (SK-MEL-2) was > 100 µM (inactive). The GI50 (HL-60) was 21.7 µM (inactive), the GI50 (OVCAR-5) was > 100 µM (inactive) and the GI50 (OVCAR-8) was > 100 µM (inactive). For the same compound, the GI50 (OVCAR-3) was 79.4 µM (inactive), the GI50 (KM12) was > 100 µM (inactive) and the GI50 (HOP-92) was 26.5 µM (inactive). The GI50 (NCI-H460) was > 100 µM (inactive), the GI50 (RPMI-8226) was 25.9 µM (inactive) and the GI50 (786-0) was > 100 µM (inactive). For the same compound, the GI50 (IGROV-1) was > 100 µM (inactive), the GI50 (SR) was 16.6 µM (inactive) and the GI50 (ACHN) was 87.9 µM (inactive). For the same compound, the GI50 (MOLT-4) was 25.7 µM (inactive), the GI50 (OVCAR-4) was > 100 µM (inactive) and the GI50 (UACC-257) was > 100 µM (inactive). The GI50 (M14) was 79.6 µM (inactive), the GI50 (SK-OV-3) was > 100 µM (inactive) and the GI50 (DMS-114) was > 100 µM (inactive). For the same compound, the GI50 (A549) was > 100 µM (inactive), the GI50 (RXF 393) was 72.8 µM (inactive) and the GI50 (SF-539) was > 100 µM (inactive). For the same compound, the GI50 (HT-29) was > 100 µM (inactive), the GI50 (HOP-62) was > 100 µM (inactive) and the GI50 (SNB-19) was > 100 µM (inactive). For the same compound, the GI50 (SK-MEL-5) was 34.1 µM (inactive), the GI50 (HCC 2998) was > 100 µM (inactive) and the GI50 (SF-268) was > 100 µM (inactive). For the same compound, the GI50 (COLO 205) was > 100 µM (inactive), the GI50 (HOP-18) was > 100 µM (inactive) and the GI50 (CCRF-CEM) was 78.9 µM (inactive). For the same compound, the GI50 (U-251) was > 100 µM (inactive), the GI50 (EKVX) was 63.4 µM (inactive) and the GI50 (HCT-15) was 99.8 µM. For the same compound, the GI50 (SK-MEL-28) was > 100 µM (inactive), the GI50 (SNB-78) was > 100 µM (inactive) and the GI50 (Malme-3M) was 97.5 µM (inactive). For the same compound, the GI50 (KM-20L2) was > 100 µM (inactive), the GI50 (SN12C) was > 100 µM (inactive) and the GI50 (SF-295) was > 100 µM (inactive). For the same compound, the GI50 (DMS-273) was > 100 µM (inactive), the GI50 (SW-620) was > 100 µM (inactive) and the GI50 (HCT-116) was > 100 µM (inactive). For the same compound, the GI50 (M19-MEL) was 90.2 µM (inactive), the GI50 (NCI-H23) was > 100 µM (inactive) and the GI50 (LXFL 529) was 85.5 µM (inactive). For the same compound, the GI50 (K562) was 31.4 µM (inactive).
